Data set [1] addresses T1, pyruvate kinase (PK) in 661W cells (Mus musculus, UniProt P52480).
T1 construct: endogenous in cells; host or cells: 661W photoreceptor cell line
Briefly: Pyruvate kinase activity in lysates of 661W cells treated for 2 hours. The data set is classed as cell-based. The note with it: for AC50: 2 hours incubation. On the procedure:
Cell Culture. The 661W photoreceptor cell line was generously provided by Dr. Muayyad al-Ubaidi (Department of Cell Biology, University of Oklahoma Health Sciences Center, Oklahoma City, OK, USA) (al-Ubaidi, M. R. et al. J. Cell Biol. 119, 1681-1687 (1992)). The 661W cell line was maintained in Dulbecco's modified Eagle's medium containing 10% fetal bovine serum, 300 mg/L glutamine, 32 mg/L putrescine, 40 μL/L of β-mercaptoethanol, and 40 μg/L of both hydrocortisone 21-hemisuccinate and progesterone. The media also contained penicillin (90 units/mL) and streptomycin (0.09 mg/mL). Cells were grown at 37° C. in a humidified atmosphere of 5% CO2 and 95% air.
Cell culture. For cell line experiments, media was replaced prior to the start of treatment with DMSO or ML-265. […] Cells were lysed and homogenized in RIPA Lysis and Extraction Buffer (Catalog number: 89900, Life Technologies Corporation, Grand Island, NY) with protease inhibitors (Complete-Mini, Roche Diagnostics, Indianapolis, IN) and clarified by centrifugation at 10,000 rpm for 10 minutes. Five microliters of the supernatant was used to assess pyruvate kinase activity, and the activity was normalized to total protein content as previously described (Walsh et al., supra).

The test system of data set [2] is caspase 8. Briefly: Caspase 8 activity in experimental retinal detachment. Type of data set: in vivo, Brown-Norway rats. The note with it: 3 days after retinal detachment, subretinal injection. As for the experimental part:
Experimental Model of Retinal Detachment. Detachments were created in Brown-Norway, adult rats as previously described (Wubben et al., supra; Besirli et al., 2010 supra; Zacks, D. N. et al. Invest. Ophthalmol. Vis. Sci. 44, 1262-1267 (2003); Zacks, D. N., et al. Invest. Ophthalmol. Vis. Sci. 45, 4563-4569 (2004); Besirli, C. G., et al. Invest. Ophthalmol. Vis. Sci. 52, 4193-4199 (2011)). Briefly, rodents were anesthetized with a mix of ketamine (100 mg/mL) and xylazine (20 mg/mL), and pupils were dilated with topical phenylephrine (2.5%) and tropicamide (1%). A 25-gauge microvitreoretinal blade (Walcott Rx Products, Ocean View, N.J.) was used to create a sclerotomy located 1-2 mm posterior to the limbus with care taken to avoid lens damage. […]
1 tablet of protease inhibitor (Complete Mini; Roche Diagnostics, Indianapolis, IN) and 1 tablet of phosphatase inhibitor (PhosSTOP; Roche Diagnostics, Indianapolis, IN) per 10 mL were added to the lysis buffer. The homogenates were centrifuged at 10,000 g for 10 minutes at 4° C., and total protein concentration of the supernatant was determined using a Micro BCA protein assay kit (ThermoScientific, Rockford, IL). Substrate was incubated with 50 μg of protein in a white-walled 96 well-plate at room temperature for 1 hour and luminescence was measured as above. […]

Data set [3] has as its system genes involved in glucose metabolism. Description: Quantitative PCR of glucose metabolism genes in treated rat retinas. The data set is classed as in vivo. The note with it: 2 μL of 7.5 mM intravitreal, 3 days, fold change cut-off of 2, vs untreated and DMSO. As for the experimental part:
Quantitative Real-Time PCR. Intravitreal injections of ML-265 or vehicle (DMSO) were performed in Brown-Norway, adult rats as described above. […] Left eyes were injected with ML-265 or DMSO. The right eye served as the control, with all steps of the procedure performed, except for introduction of the blunt cannula and injection of ML-265 or DMSO. Retinas were harvested 3 days post-injection.
Total RNA was purified from retinal tissues of rats using RNeasy Mini kit (Qiagen, Cat No./ID: 74104) and QIAshredder (Qiagen, Cat No./ID: 79654). cDNA was synthesized using RT^2 First Strand Kit (Cat. No./ID: 330401) according to the manufacturer's instructions. Quantitative PCR was performed in at least triplicate for the different experimental groups using the Rat Glucose Metabolism RT^2 Profiler™ PCR Array (Qiagen, Cat No./ID: PARN-006Z). This PCR array allows simultaneous profiling of 84 genes involved in glucose metabolism and includes housekeeping genes for normalization. Reactions were performed and monitored using a CFX96 real time PCR system (Bio-Rad Laboratories), 1 cycle at 95° C. for 10 min followed by 40 cycles at 95° C. for 15 sec, 60° C. for 1 min. Data analysis was performed using the RT^2 Profiler™ PCR Array Data Analysis Template from Qiagen. Those genes whose relative expression level was low or not detected in all experimental groups were excluded from analysis. […]

The subject of another data set is 661W cells. Description: Cell viability of 661W cells (RealTime-Glo MT). The note with it: 48 hours; for cell viability above DMSO-treated cells in standard tissue culture conditions / less cell death as compared to vehicle: FasL. Type of data set: cell-based. As for the experimental part:
Cell viability. Cell viability was measured using a luminescent assay kit not based on ATP (RealTime-Glo MT Cell Viability Assay, Promega, Madison, WI, Cat No. G9711). 661W cells were seeded in 96-well plates (Nunc, Rochester, NY) at 2,500 cells/well 24 hours prior to treatment. […] Cell viability was measured 48 hours after treatment according to the manufacturer's instructions. […] Viability was again assessed at 48 hours after addition of FasL and HA Luminescence was measured in a plate reader luminometer (BMG Labtech, Inc, Cary, NC).

Another data set deals with caspase 3/7. Description: Caspase 3/7 activity assay in 661W cells. The data set is classed as cell-based. The conditions noted are these: 8 hours. On the procedure:
(§1) Caspase Activity Assay. Luminescent assay kits (Caspase-Glo 8 and 3/7 Assay Systems, Promega, Madison, WI, Cat Nos. G8200 and G8090, respectively) were utilized to measure caspase 8 and caspase 3/7 activity according to the manufacturer's instructions. The 661W cells were seeded in white-walled 96-well plates at 2,500 cells/well for 24 hours prior to treatment. […] Caspase activity was measured at 8 hours status post treatment by incubating the cells with substrate for 1 hour according to the manufacturer's instructions. Luminescence was measured in a plate reader luminometer (BMG Labtech, Inc, Cary, NC).

The next data set deals with T2, pyruvate kinase (PK) (Rattus norvegicus, UniProt P11980).
T2 construct: from tissue; host or cells: retina of Brown-Norway adult rats
Description: In vivo pyruvate kinase activation in rat retina after intravitreal injection. The note with it: rats. As for the experimental part: Animals. Intravitreal injections of ML-265 or vehicle (DMSO) were performed in Brown-Norway, adult rats. Rodents were anesthetized with a mix of ketamine (100 mg/mL) and xylazine (20 mg/mL), and pupils were dilated with topical phenylephrine (2.5%) and tropicamide (1%). A 25-gauge microvitreoretinal blade (Walcott Rx Products, Ocean View, N.J.) was used to create a sclerotomy located 1-2 mm posterior to the limbus with care taken to avoid lens damage. A blunt, 34-gauge cannula was introduced through the sclerotomy into the vitreous cavity. […] Four hours after intravitreal injection, retinas from experimental rat eyes were dissected from the RPE-choroid, homogenized, and lysed in RIPA Lysis and Extraction Buffer with protease inhibitors. The assay was carried out using 4 microliters of rat retinal lysate in an enzyme buffer mixture (50 mM Tris-HCl, pH 7.4, 100 mM KCl, 5 mM MgCl2, 1 mM ADP, 0.5 mM PEP, and 0.2 mM NADH) and 8 units of LDH similar to what has been previously described (Wubben et al., supra; Raj ala et al., supra). Pyruvate kinase activity was normalized to total protein in each retinal lysate.
The retinas of these animals were then harvested 15 days after injection and assayed for PK activity (FIG. 20).

The next data set addresses T3, human recombinant PKM2 (Homo sapiens, UniProt P14618).
T3 construct: purchased Sigma SAE0021
Briefly: Pyruvate kinase activity enzyme assay, recombinant enzyme (LDH-coupled). The conditions noted are these: read-out: max activation. Type of data set: biochemical. As for the experimental part: Pyruvate Kinase Activity Enzyme Assay. Recombinant Enzyme. A continuous, enzyme-coupled assay, which uses lactate dehydrogenase (LDH) and measures the depletion of NADH via absorbance at 340 nm was utilized to determine the pyruvate kinase activity. […] The decrease in absorbance at 340 nm was monitored using a Spectrostar Omega plate reader (BMG LABTECH Inc., Cary, NC, USA). Initial velocities were calculated with the MARS software. Data were normalized to DMSO (dimethyl sulfoxide)-treated PKM2 activity.

Data set [4] has as its system caspase 8. Description: Caspase 8 activity assay in 661W cells. The conditions noted are these: 8 hours. The data set is classed as cell-based. On the procedure:
as §1

For another data set, the system named is H1299 cell xenografts. The conditions noted are these: cited from earlier work.
A short description of data set [5]: Ocular pharmacokinetics after single intravitreal injection, aqueous humor. Type of data set: in vivo, Dutch-belted rabbits. The note with it: male, Dutch-belted, other: intravitreal, rabbit aqueous humor. As for the experimental part: Pharmacokinetics. Pharmacokinetic studies were performed in Dutch-belted rabbits. As previously described, male rabbits were anesthetized with inhalant anesthesia (sevoflurane) prior to each aqueous humor collection or intravitreal injection. An external heat source was used to prevent hypothermia. […] A Flynn pediatric lid speculum was placed in the eye and betadine was applied to the injection site. The temporal sclera was marked with a caliper 2 mm from the limbus. […] Delivery of the compound into the eye was confirmed via clinical inspection (Smith, A. et al. J Ocul Pharmacol Ther 34, 477-485 (2018)). An aqueous humor sample (100 microliters) was collected from each eye prior to intravitreal injection to serve as a baseline control. A 30-gauge needle on a 1 ml syringe was used to enter the anterior chamber of the eye and aspirate the aqueous humor in a controlled fashion. […] Samples were analyzed by LC-MS/MS (liquid chromatography-mass spectrometry/mass spectrometry). […] Rabbits are the most commonly used animals in intravitreal pharmacokinetic studies with good correlation to the human eye (Del Amo, E. M. & Urtti, A. Exp. Eye Res. 137, 111-124 (2015)). As described above, two different concentrations were injected into the vitreous of rabbits, and the aqueous humor was sampled at various times thereafter. […]

Where [6] appears, read: standard tissue culture conditions.
Where [7] appears, read: 500 ng/mL FasL and 250 ng/mL HA.
[8] abbreviates: 15 days after single intravitreal injection of 2 μL of 7.5 mM.

Results on one molecule are retold here after US12233063B2, “Compositions and methods for treating eye disorders” (THE REGENTS OF THE UNIVERSITY OF MICHIGAN, priority 2017, dated 2025).

Like-named read-outs stand apart in the source and are kept apart here.

T2 sequence (P11980 1-531 isoform P11980-2): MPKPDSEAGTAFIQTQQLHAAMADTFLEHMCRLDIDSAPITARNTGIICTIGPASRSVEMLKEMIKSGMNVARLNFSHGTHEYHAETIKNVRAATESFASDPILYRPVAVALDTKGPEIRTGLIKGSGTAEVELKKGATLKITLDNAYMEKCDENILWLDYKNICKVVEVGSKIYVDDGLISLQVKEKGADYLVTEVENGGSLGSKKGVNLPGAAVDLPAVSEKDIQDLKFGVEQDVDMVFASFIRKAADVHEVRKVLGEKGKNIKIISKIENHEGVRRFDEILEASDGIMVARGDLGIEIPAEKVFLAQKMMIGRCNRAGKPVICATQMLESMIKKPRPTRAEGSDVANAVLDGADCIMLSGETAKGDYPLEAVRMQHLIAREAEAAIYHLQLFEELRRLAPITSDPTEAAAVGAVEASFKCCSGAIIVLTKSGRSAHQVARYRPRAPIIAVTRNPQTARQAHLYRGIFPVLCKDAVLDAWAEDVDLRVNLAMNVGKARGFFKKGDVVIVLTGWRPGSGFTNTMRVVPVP
T1 sequence (P52480 whole entry): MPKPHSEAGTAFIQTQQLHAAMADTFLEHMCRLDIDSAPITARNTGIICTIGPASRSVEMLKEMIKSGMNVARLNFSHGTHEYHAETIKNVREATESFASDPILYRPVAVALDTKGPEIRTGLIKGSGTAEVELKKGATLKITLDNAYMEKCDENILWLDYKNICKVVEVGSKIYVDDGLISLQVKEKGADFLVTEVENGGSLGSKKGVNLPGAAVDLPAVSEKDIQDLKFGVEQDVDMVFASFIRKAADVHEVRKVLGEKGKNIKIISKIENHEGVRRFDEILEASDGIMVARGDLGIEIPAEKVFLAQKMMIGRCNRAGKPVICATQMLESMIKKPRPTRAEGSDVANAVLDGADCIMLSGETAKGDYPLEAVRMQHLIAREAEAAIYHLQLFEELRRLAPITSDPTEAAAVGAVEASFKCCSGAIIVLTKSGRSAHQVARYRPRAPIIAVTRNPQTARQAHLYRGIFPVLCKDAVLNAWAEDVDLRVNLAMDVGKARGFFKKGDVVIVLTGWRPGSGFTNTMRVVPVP
T3 sequence (P14618 whole entry): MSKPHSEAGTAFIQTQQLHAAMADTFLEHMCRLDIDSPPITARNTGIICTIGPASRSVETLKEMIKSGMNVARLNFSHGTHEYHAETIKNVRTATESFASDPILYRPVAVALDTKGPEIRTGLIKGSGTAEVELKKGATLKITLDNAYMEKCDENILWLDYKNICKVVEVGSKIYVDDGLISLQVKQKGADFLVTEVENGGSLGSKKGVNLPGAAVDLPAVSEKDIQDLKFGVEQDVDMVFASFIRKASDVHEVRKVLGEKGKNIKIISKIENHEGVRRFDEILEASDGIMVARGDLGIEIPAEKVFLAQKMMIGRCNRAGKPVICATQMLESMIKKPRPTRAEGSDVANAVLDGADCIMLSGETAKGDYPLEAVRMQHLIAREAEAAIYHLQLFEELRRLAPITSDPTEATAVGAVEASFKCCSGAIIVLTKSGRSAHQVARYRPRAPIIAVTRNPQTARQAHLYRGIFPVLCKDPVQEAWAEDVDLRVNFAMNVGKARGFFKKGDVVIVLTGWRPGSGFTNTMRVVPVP

For orientation: AC50 means the concentration giving half of the maximal activity seen. In the case of `Cn1c2cc([S+](C)[O-])sc2c2cnn(Cc3cccc(N)c3)c(=O)c21` (stereo not drawn) [ML-265], the “increase in PK activity” value in [1] is 236%. Also, the AC50 entry in data set [1] is “comparable to that with recombinant protein”; in [1] (read-out: AC50), 0.022 µM; on pyruvate kinase (PK) (intravitreal injection, retinas 4 hours after injection), 0.059 µM. Also, in the data set on caspase 8 [2], the “caspase 8 activity vs vehicle” value is recorded as “statistically significantly less”. Further, in [3], the “normalized gene expression patterns, glucose metabolism genes” value is reported as “very similar”. Moreover, the “cell viability above DMSO-treated cells in standard tissue culture conditions” value in the data set on 661W cells (200 nM ML-265) came out at 2%; in the data set on 661W cells (2 μM ML-265) it was 6%. Moreover, the “less cell death as compared to vehicle” value stood at 109% in the data set with 661W cells (200 nM ML-265) and 123% in the data set on 661W cells (2 μM ML-265). Further, the cell viability entry with 661W cells (setting [6]) is on record as “no significant effect”. Besides, in the data set on caspase 3/7 (setting [7]), the “caspase 3/7 activation” value was “significantly decreased”. Also, the “caspase 3/7 activity” value in the data set on caspase 3/7 (setting [6]) is recorded as “no significant effect”. Also, the Emax was at most 170% at pyruvate kinase (PK) (rat, intravitreal injection, saturating concentrations, read-out: maximum activation of PK) and above 250% at human recombinant PKM2. Moreover, the “average in vivo PK activation” value on pyruvate kinase (PK) (setting [8]) was found to be 43%. Moreover, on pyruvate kinase (PK) (setting [8]), the “median PK activation above DMSO treated retinas” value came out at 38%. For the same molecule, at pyruvate kinase (PK) (intravitreal injection, saturating concentrations), the “maximum activation of PK” value was found to be 170%. In addition, the “caspase 8 activation” value in the data set with caspase 8 [4] (setting [7]) was “significantly decreased”. Moreover, in the data set with caspase 8 [4] (setting [6]), the “caspase 8 activity” value was “no significant effect”. Besides, the “tumor size and occurrence” value with H1299 cell xenografts (mice bearing H1299 cell xenografts) is “reduce tumor size and occurrence”. For the same molecule, the toxicity result in the data set with H1299 cell xenografts (over 7 weeks of continuous drug exposure) is listed as “No toxicity was observed”. Also, the half-life was 177 h in data set [5] (23 mM, 50 microliters per eye, highest concentration (1 mM final vitreous), read-out: t1/2 terminal phase (converted)); 7.8 h in [5] (between 6 and 48 hours, 100 μM and 1 mM final vitreous concentration, read-out: t1/2 initial phase (converted)).
